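Results reflect a 48-hour exposure of cells in 96-well plates to compound at five concentrations. At the GI50, growth is halved.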 The source made the active and inactive calls. Rule as the data show it: active = GI50 up to about 1.1 µM and inactive = higher.
How the values were obtained:
Experiment in all cases: growth of human tumour cells (NCI), 48 h
SW-620 = system: SW-620
SK-MEL-28 = system: SK-MEL-28
DU-145 = system: DU-145
UO-31 = system: UO-31
SR = system: SR
SK-MEL-2 = system: SK-MEL-2
T47D = system: T47D
OVCAR-8 = system: OVCAR-8
HCT-116 = system: HCT-116
U-251 = system: U-251
OVCAR-4 = system: OVCAR-4
SF-539 = system: SF-539
IGROV-1 = system: IGROV-1
A498 = system: A498
SNB-19 = system: SNB-19
HOP-62 = system: HOP-62
HOP-92 = system: HOP-92
UACC-257 = system: UACC-257
SNB-75 = system: SNB-75
RXF 393 = system: RXF 393

| SMILES | GI50 (SW-620) | GI50 (SK-MEL-28) | GI50 (DU-145) | GI50 (UO-31) | GI50 (SR) | GI50 (SK-MEL-2) | GI50 (T47D) | GI50 (OVCAR-8) | GI50 (HCT-116) | GI50 (U-251) | GI50 (OVCAR-4) | GI50 (SF-539) | GI50 (IGROV-1) | GI50 (A498) | GI50 (SNB-19) | GI50 (HOP-62) | GI50 (HOP-92) | GI50 (UACC-257) | GI50 (SNB-75) | GI50 (RXF 393) |
| --- | --- | --- | --- | --- | --- | --- | --- | --- | --- | --- | --- | --- | --- | --- | --- | --- | --- | --- | --- | --- |
| c1n[nH]cc1C12C3C4C5C3C1C5C42 (stereo not given) | > 100 µM (inactive) | > 100 µM (inactive) | > 100 µM (inactive) | > 100 µM (inactive) | > 100 µM (inactive) | > 100 µM (inactive) | 85.3 µM (inactive) | > 100 µM (inactive) | > 100 µM (inactive) | > 100 µM (inactive) | > 100 µM (inactive) | > 100 µM (inactive) | > 100 µM (inactive) | > 100 µM (inactive) | > 100 µM (inactive) | > 100 µM (inactive) | 65.6 µM (inactive) | > 100 µM (inactive) | 69.2 µM (inactive) | > 100 µM (inactive) |
| CCOC(=O)C(SCCO)C(C(=O)OCC)n1cc(C)c(=O)[nH]c1=O (stereo not given) | 5.96 µM (inactive) | 19.4 µM (inactive) | > 74.6 µM (inactive) | 22.9 µM (inactive) | 6.92 µM (inactive) | 19.6 µM (inactive) | 19.6 µM (inactive) | 14.1 µM (inactive) | 7.41 µM (inactive) | 11.5 µM (inactive) | 23 µM (inactive) | 23.1 µM (inactive) | 25.4 µM (inactive) | 20.4 µM (inactive) | 62.1 µM (inactive) | > 61.2 µM (inactive) | 15.6 µM (inactive) | 28.2 µM (inactive) | 34.1 µM (inactive) | 17 µM (inactive) |
| Cc1nc2cccc([N+](=O)[O-])c2c(NCCCN(C)C)c1C | 29.4 µM (inactive) | > 100 µM (inactive) | 78.2 µM (inactive) | > 100 µM (inactive) | > 34.5 µM (inactive) | > 51.3 µM (inactive) | > 100 µM (inactive) | 36.1 µM (inactive) | 20.9 µM (inactive) | > 79.8 µM (inactive) | 17.3 µM (inactive) | 45.4 µM (inactive) | > 100 µM (inactive) | 34.8 µM (inactive) | > 100 µM (inactive) | 28.9 µM (inactive) | > 100 µM (inactive) | 23 µM (inactive) | 49.7 µM (inactive) | 16.1 µM (inactive) |
| CN1CCc2c3n(c4cc(Br)ccc24)[C@H](O)CCCC31 (stereo not given in full) | 1.96 µM (inactive) | 1.72 µM (inactive) | > 10 µM (inactive) | > 7.52 µM (inactive) | 1.93 µM (inactive) | 0.736 µM (active) | > 10 µM (inactive) | 1.79 µM (inactive) | 1.69 µM (inactive) | 1.85 µM (inactive) | 2.67 µM (inactive) | 1.9 µM (inactive) | > 7.11 µM (inactive) | 4.11 µM (inactive) | > 10 µM (inactive) | > 10 µM (inactive) | 3.61 µM (inactive) | 2.25 µM (inactive) | 2.3 µM (inactive) | 2.59 µM (inactive) |
